These results are taken from patent US6734205B2, “Substituted guanidine derivatives” (Sumitomo Pharmaceuticals Company Limited, priority 1999, dated 2004).

Counter-ions that a name gives are not always drawn.

T1 sequence (P26431 whole entry): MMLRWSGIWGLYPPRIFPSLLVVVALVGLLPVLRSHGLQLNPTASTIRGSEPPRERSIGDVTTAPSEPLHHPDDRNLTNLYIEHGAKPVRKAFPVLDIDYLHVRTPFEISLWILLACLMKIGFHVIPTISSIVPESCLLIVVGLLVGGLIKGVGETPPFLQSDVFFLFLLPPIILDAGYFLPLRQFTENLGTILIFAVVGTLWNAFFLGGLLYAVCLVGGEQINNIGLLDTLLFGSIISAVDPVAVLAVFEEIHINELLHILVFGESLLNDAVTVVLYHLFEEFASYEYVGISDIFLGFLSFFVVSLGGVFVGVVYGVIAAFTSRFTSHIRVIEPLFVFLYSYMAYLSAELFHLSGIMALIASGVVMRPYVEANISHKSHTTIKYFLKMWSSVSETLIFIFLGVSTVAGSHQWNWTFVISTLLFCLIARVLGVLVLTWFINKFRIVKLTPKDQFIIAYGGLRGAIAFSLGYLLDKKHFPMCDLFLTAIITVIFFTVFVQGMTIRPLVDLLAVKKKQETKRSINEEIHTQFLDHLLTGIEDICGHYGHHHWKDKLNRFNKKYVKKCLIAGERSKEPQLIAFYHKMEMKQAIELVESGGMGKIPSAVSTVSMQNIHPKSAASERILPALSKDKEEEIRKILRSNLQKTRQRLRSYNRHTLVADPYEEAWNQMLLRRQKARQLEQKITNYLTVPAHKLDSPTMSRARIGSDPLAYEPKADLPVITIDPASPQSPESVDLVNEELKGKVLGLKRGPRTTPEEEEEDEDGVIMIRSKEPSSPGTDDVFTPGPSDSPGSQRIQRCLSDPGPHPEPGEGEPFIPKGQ

The first data set has as its target T1, Na^+/H^+ exchange transport system (Rattus norvegicus, UniProt P26431).
T1 construct: a pH change in isolated ventricular myocytes (rat) under an acidic load; endogenous in cells; host or cells: isolated rat ventricular myocytes
Kind of data set: Inhibitory effect on the Na^+/H^+ exchange transport system (in vitro), pH change in isolated ventricular myocytes under an acidic load. In kind it is cell-based. On the procedure: Inhibitory Effect on the Na^+/H^+ Exchange Transport System (in vitro)
A test was carried out according to the method of Iemori et al. (J. Hypertension, 8, 153(1990)). In detail, inhibitory effect on the Na^+/H^+ exchange transport system was evaluated by using as an indication a pH change in isolated ventricular myocytes (rat) under an acidic load.
`Cc1c(OS(=O)(=O)O)ccc2c1cc(C(=O)NC(=N)N)n2C` [Example 1, 2-[[[amino(imino)methyl]amino]-carbonyl]-1,4-dimethyl-1H-indol-5-yl Hydrogen Sulfate] gave an IC50 of 10000 nM. Still for that read-out and setting: to `Cc1cc(OS(=O)(=O)O)cc2c1cc(C(=O)NC(=N)N)n2C` [Example 2, 2-[[[Amino(imino)methyl]amino]carbonyl]-1,4-dimethyl-1H-indol-6-yl Hydrogen Sulfate] belongs 70 nM; to `Cc1ccc(OS(=O)(=O)O)c2c1cc(C(=O)NC(=N)N)n2C` [Example 4, 2-[[[amino(imino)methyl]amino]-carbonyl]-1,4-dimethyl-1H-indol-7-yl Hydrogen Sulfate], 200 nM.

System in the next data set: not given
Test: not given
`Cn1c(C(=O)NC(=N)N)cc2c(C(F)(F)F)ccc(CS(=O)(=O)O)c21` [Example 38, [2-[[[Amino(imino)methyl]amino]carbonyl]-1-methyl-4-(trifluoromethyl)-1H-indol-7-yl]methanesulfonic Acid] registered a melting point not below 300 °C. Compound `Cn1c(C(=O)NC(=N)N)cc2c(C(F)(F)F)cc(CCS(=O)(=O)O)cc21` [Example 39, 2-[2-[[[amino(imino)methyl]-amino]carbonyl]-1-methyl-4-(trifluoromethyl)-1H-indol-6-yl]ethanesulfonic Acid] registered a melting point not below 300 °C. With `Cn1c(C(=O)NC(=N)N)cc2c(C(F)(F)F)ccc(CCS(=O)(=O)O)c21` [Example 40, 2-[2-[[[Amino(imino)methyl]amino]carbonyl]-1-methyl-4-(trifluoromethyl)-1H-indol-7-yl]ethanesulfonic Acid], the melting point is not below 300 °C. On the same count and under the same terms, to `Cn1c(C(=O)NC(=N)N)cc2c(Cl)cc(CCS(=O)(=O)O)cc21` [Example 41, 2-[2-[[[Amino(imino)methyl]amino]carbonyl]-4-chloro-1-methyl-1H-indol-6-yl]ethanesulfonic Acid] belongs not below 300 °C; to `Cc1cc(CCS(=O)(=O)O)cc2c1cc(C(=O)NC(=N)N)n2C` [Example 42, 2-[2-[[[Amino(imino)methyl]amino]carbonyl]-1,4-dimethyl-1H-indol-6-yl]ethanesulfonic Acid], ≥ 300 °C (dec.); to `Cn1c(C(=O)NC(=N)N)cc2c(C(F)(F)F)cc(OCP(=O)(O)O)cc21` [Example 45, [[2-[[[amino(imino)methyl]-amino]carbonyl]-1-methyl-4-(trifluoromethyl)-1H-indol-6-yl]oxy]-methylphosphonic Acid], 292 °C (dec.). Consider `Cn1c(C(=O)NC(=N)N)cc2c(C(F)(F)F)ccc(OCP(=O)(O)O)c21` [Example 46, [[2-[[[Amino(imino)methyl]amino]carbonyl]-1-methyl-4-(trifluoromethyl)-1H-indol-7-yl]oxy]methylphosphonic Acid], for which the melting point was 260 °C (dec.). Same read-out and setting: to `Cn1c(C(=O)NC(=N)N)cc2c(Cl)cc(OCP(=O)(O)O)cc21` [Example 47, [[2-[[[Amino(imino)methyl]amino]carbonyl]-4-chloro-1-methyl-1H-indol-6-yl]oxy]methylphosphonic Acid] belongs 263 °C (dec.).

On to `Cn1c(C(=O)NC(=N)N)cc2c(Cl)ccc(OCP(=O)(O)O)c21` [Example 48, [[2-[[[Amino(imino)methyl]amino]carbonyl]-4-chloro-1-methyl-1H-indol-7-yl]oxy]methylphosphonic Acid], for which the melting point worked out at 247 °C.

In turn, `Cc1cc(OCP(=O)(O)O)cc2c1cc(C(=O)NC(=N)N)n2C` [Example 49, [[2-[[[Amino(imino)methyl]amino]carbonyl]-1,4-dimethyl-1H-indol-6-yl]oxy]methylphosphonic Acid] gave a melting point not below 300 °C.

Regarding `Cc1ccc(OCP(=O)(O)O)c2c1cc(C(=O)NC(=N)N)n2C` [Example 50, [[2-[[[Amino(imino)methyl]amino]carbonyl]-1,4-dimethyl-1H-indol-7-yl]oxy]methylphosphonic Acid], the melting point is 270 °C (dec.). In the case of `Cn1c(C(=O)NC(=N)N)cc2c(C(F)(F)F)cc(CCP(=O)(O)O)cc21` [Example 51, 2-[2-[[[amino(imino)methyl]-amino]carbonyl]-1-methyl-4-(trifluoromethyl)-1H-indol-6-yl]ethylphosphonic Acid], the melting point was 277 °C (dec.). Consider `Cn1c(C(=O)NC(=N)N)cc2c(Cl)ccc(CCP(=O)(O)O)c21` [Example 53, 2-[2-[[[Amino(imino)methyl]amino]carbonyl]-4-chloro-1-methyl-1H-indol-7-yl]ethylphosphonic Acid], for which the melting point was 256 °C (dec.). Same read-out and setting: to `Cc1cc(CCP(=O)(O)O)cc2c1cc(C(=O)NC(=N)N)n2C` [Example 54, 2-[2-[[[Amino(imino)methyl]amino]carbonyl]-1,4-dimethyl-1H-indol-6-yl]ethylphosphonic Acid] belongs 255 °C (dec.).
